Laboratory results published in patent US12447170B2, “Use of maribavir in treatment regimens” (priority 2021, dated 2025).
Entries after “also recorded” stand apart in the source; their conditions may differ.

Experiments:
[1] = PBPK simulation of maribavir with ketoconazole (CYP3A4 inhibitor); parameters: species or system human
Method: A comparison of observed and predicted plasma concentrations of maribavir following a single oral dose of 400 mg administered in the absence of ketoconazole (a CYP3A4 inhibitor) and 1 hour after a single 400 mg dose of ketoconazole to healthy subjects was performed.

[2] = Observed clinical interaction of maribavir with rifampicin; type: in vivo, human; conditions: maribavir 400 mg BID with/without rifampicin 600 mg QD
Method: A comparison of observed and predicted plasma concentrations of maribavir following multiple oral doses of 400 mg administered in the absence of rifampicin and during concurrent treatment with rifampicin was performed. Subjects took maribavir 400 mg BID on Days 1-3 (5 doses), then rifampicin 600 mg QD on Days 4 through 12, followed by both maribavir 400 mg (BID) and rifampicin 600 mg QD on Days 13 and 14, with final doses of maribavir and rifampicin on the morning of Day 15.

P-gp = biological target: T1, P-gp (Homo sapiens, UniProt P08183); test: Inhibition of P-gp efflux of digoxin in cultured Caco-2 cells; type: in vitro ADME
T1 construct: P-gp efflux of digoxin (as determined by the corrected efflux ratio) in cultured Caco-2 cells; endogenous in cells; host or cells: Caco-2 cells
Method: FIG. 4. Estimation of IC50 of maribavir on P-gp efflux of digoxin (as determined by the corrected efflux ratio) in cultured Caco-2 cells. IC50, half maximal inhibitory concentration; P-gp, P-glycoprotein.
Drug-drug interaction potential of maribavir with cytochrome P450 enzymes and P-glycoprotein (P-gp) was thoroughly characterized. The reversible inhibition, time-dependent inhibition, and induction of CYPs were evaluated in the presence of maribavir using human cells or human-derived cell lines. The inhibition of P-gp was also assessed.

[3] = parameters: species or system human; conditions: in vivo
Source text: It can be taken with or without food, and no dose adjustment is needed in patients with mild-to-moderate hepatic impairment or renal impairment. Maribavir has a low drug-interaction potential and there are minimal dose adjustments required (for example, only when taken concurrently with CYP3A4 inducers or certain immunosuppressants) and there are no effects on QT interval.

CYP2C9 = CYP2C9 (Homo sapiens, UniProt P11712); test: Reversible CYP inhibition in human liver microsomes (HLM); type: in vitro ADME; parameters: from tissue; host or cells: human liver microsomes
Method: (§1) HLM were used to evaluate maribavir's half maximal inhibitory concentration (IC50) on inhibition of activities of nine CYP isoforms. Probe substrates were phenacetin (CYP1A2), coumarin (CYP2A6), bupropion (CYP2B6), paclitaxel (CYP2C8), tolbutamide (CYP2C9), (S)-mephenytoin (CYP2C19), dextromethorphan (CYP2D6), clorzoxazone (CYP2E1), and midazolam and testosterone (CYP3A4).
(§2) CYP activities with 0, 0.1, 0.3, 1, 3, 10, 30, and 100 μM of maribavir were evaluated.

CYP2C19 = CYP2C19 (Homo sapiens, UniProt P33261); test: as above; type: in vitro ADME; parameters: from tissue; host or cells: human liver microsomes
Method: as §1, §2

CYP2D6 = CYP2D6 (Homo sapiens, UniProt P10635); test: as above; type: in vitro ADME; parameters: from tissue; host or cells: human liver microsomes; conditions: up to 100 μM
Method: as §1, §2

CYP1A2 = biological target: T2, CYP1A2 (Homo sapiens, UniProt P05177); test: as above; type: in vitro ADME; parameters: from tissue; host or cells: human liver microsomes
T2 sequence (P05177 1-516): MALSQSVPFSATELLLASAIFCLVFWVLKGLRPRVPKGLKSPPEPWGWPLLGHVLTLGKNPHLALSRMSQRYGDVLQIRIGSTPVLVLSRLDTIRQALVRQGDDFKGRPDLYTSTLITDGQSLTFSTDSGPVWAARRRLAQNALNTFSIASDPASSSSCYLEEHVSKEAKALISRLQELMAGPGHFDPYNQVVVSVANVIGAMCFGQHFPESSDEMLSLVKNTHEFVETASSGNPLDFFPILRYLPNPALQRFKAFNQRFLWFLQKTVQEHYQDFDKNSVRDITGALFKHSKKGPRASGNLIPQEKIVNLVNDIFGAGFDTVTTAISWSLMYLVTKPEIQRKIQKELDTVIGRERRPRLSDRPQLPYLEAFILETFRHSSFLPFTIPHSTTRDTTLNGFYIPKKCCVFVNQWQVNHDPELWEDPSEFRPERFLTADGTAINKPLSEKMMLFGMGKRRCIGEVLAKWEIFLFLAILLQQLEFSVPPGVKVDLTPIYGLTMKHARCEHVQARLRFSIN
Method: as §1, §2

CYP2C8 = biological target: T3, CYP2C8 (Homo sapiens, UniProt P10632); test: as above; type: in vitro ADME; parameters: from tissue; host or cells: human liver microsomes; conditions: up to 100 μM
T3 sequence (P10632 1-490): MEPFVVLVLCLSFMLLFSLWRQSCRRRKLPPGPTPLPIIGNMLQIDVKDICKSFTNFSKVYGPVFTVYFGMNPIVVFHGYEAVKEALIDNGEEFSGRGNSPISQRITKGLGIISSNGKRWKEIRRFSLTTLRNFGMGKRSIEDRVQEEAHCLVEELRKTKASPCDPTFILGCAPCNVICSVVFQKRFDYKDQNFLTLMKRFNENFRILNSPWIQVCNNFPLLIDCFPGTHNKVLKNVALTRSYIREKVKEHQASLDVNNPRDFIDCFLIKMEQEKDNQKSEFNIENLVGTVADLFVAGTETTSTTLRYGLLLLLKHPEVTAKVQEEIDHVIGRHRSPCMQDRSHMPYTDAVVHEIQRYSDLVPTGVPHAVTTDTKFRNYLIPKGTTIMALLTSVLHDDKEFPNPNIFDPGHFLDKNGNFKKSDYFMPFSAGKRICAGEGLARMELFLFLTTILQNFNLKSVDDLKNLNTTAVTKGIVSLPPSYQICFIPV
Method: as §1, §2

CYP1A2 mRNA = type: in vitro ADME; conditions: human, hepatocytes, 72 h
Method: (§3) Fresh human hepatocytes were treated with culture medium with maribavir concentrations of 36 μM, 144 μM, and 480 μM. […] Incubation was conducted at 37° C. for 72 hours, with daily replacement of medium with compound. […] Analysis of CYP expression was performed using qPCR with CYP-specific probes.

CYP2B6 mRNA = type: in vitro ADME; conditions: human, hepatocytes, 72 h
Method: as §3

[4] = maribavir 400 mg single dose 1 hour after ketoconazole 400 mg

CYP2D6, sequence (P10635 whole entry): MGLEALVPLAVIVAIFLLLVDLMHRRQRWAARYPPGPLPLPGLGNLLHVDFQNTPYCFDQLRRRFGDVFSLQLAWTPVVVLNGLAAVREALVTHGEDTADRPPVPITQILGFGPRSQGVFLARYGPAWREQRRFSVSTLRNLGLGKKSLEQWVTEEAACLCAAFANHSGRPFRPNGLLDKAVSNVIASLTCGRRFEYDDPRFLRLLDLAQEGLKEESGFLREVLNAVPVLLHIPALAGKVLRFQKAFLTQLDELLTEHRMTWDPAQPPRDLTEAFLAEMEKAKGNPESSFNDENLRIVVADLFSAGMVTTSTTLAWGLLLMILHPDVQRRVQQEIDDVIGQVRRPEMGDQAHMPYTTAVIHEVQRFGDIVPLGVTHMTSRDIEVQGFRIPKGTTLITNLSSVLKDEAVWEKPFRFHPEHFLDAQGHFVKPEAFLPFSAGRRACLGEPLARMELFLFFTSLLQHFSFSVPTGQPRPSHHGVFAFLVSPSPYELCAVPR
T1 sequence (P08183 whole entry): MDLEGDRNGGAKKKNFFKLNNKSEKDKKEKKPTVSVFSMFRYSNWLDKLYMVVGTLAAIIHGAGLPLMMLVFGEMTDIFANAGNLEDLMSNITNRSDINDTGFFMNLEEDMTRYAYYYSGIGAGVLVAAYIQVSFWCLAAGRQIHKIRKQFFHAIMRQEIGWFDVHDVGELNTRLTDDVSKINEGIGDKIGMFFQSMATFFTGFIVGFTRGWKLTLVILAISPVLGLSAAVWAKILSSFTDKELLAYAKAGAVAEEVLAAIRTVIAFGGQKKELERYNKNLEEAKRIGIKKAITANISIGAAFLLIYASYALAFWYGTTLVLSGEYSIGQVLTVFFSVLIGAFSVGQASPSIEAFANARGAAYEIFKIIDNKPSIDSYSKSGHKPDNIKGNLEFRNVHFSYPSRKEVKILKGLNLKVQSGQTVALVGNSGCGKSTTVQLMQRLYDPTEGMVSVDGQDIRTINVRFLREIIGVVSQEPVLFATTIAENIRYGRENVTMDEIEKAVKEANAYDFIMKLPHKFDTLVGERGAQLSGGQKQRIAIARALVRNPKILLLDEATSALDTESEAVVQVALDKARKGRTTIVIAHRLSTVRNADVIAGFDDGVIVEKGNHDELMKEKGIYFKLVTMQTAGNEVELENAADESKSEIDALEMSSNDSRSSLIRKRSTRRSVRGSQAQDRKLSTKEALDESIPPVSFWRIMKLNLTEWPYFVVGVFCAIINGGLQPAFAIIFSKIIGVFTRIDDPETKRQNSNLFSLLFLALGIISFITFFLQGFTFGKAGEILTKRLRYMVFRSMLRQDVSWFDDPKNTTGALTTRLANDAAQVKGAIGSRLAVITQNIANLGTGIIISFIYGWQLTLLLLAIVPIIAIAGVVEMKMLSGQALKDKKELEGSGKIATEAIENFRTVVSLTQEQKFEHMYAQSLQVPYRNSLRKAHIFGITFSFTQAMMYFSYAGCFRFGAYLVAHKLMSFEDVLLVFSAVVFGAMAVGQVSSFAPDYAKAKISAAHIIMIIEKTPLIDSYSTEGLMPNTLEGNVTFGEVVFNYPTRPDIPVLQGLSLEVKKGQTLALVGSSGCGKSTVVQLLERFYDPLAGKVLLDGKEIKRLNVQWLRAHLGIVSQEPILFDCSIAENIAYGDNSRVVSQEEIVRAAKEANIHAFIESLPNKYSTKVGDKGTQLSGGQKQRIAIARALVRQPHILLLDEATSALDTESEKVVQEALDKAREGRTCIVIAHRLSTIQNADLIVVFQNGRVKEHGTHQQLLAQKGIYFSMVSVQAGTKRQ
CYP2C9, sequence (P11712 whole entry, canonical isoform): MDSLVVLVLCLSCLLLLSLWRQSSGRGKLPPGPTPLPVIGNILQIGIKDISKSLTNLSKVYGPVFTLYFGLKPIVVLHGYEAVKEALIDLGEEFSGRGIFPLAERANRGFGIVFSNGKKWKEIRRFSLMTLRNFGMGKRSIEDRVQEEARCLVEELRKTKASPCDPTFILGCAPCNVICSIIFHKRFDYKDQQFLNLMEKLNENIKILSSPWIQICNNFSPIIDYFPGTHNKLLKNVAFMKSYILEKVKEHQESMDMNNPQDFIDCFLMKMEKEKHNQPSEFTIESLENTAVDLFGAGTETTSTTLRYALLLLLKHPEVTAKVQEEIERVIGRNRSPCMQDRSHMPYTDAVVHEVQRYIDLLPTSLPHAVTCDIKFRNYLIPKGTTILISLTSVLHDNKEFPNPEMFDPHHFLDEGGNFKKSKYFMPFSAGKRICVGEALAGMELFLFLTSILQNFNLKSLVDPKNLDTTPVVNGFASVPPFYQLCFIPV
CYP2C19, sequence (P33261 whole entry): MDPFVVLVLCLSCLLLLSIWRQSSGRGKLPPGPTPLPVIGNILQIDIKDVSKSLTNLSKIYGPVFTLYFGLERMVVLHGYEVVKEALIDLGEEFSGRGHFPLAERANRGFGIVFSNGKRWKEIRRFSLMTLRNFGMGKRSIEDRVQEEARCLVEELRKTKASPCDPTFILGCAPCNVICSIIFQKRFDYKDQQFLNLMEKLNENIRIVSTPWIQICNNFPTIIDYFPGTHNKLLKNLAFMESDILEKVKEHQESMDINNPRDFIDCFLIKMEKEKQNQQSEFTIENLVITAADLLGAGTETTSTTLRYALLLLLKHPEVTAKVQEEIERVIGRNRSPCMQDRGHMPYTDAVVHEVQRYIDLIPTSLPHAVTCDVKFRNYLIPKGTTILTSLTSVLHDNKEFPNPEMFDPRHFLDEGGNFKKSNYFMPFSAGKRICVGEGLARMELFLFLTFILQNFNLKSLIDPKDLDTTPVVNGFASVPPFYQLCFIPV

CC(C)Nc1nc2cc(Cl)c(Cl)cc2n1[C@H]1O[C@@H](CO)[C@H](O)[C@@H]1O [maribavir, (2S,3S,4R,5S)-2-(5,6-dichloro-2-(isopropylamino)-1H-benzo[d]imidazol-1-yl)-5-(hydroxymethyl)tetrahydrofuran-3,4-diol]
AUC(0-∞), GEOMEAN RATIO PREDICTED/OBSERVED [1, 4]: 0.77
AUC(0-∞), MEAN RATIO PREDICTED/OBSERVED [1, 4]: 0.78
Cmax, GEOMEAN RATIO PREDICTED/OBSERVED [1, 4]: 0.65
Cmax, MEAN RATIO PREDICTED/OBSERVED [1, 4]: 0.66
Ratio AUC(0-∞), GEOMEAN RATIO PREDICTED/OBSERVED ([1]; with/without ketoconazole): 1.00
Ratio AUC(0-∞), MEAN RATIO PREDICTED/OBSERVED ([1]; with/without ketoconazole): 0.99
Ratio Cmax, GEOMEAN RATIO PREDICTED/OBSERVED ([1]; with/without ketoconazole): 1.06
Ratio Cmax, MEAN RATIO PREDICTED/OBSERVED ([1]; with/without ketoconazole): 1.05
Ratio AUC(0-12 h), observed Mean [2]: 0.41
Ratio C12 h, observed Mean [2]: 0.17
Ratio Cmax, observed Mean [2]: 0.65
IC50 (P-gp): 33.8 µM
effects on QT interval [3]: no effects
IC50 (CYP2C9): 18 µM
IC50 (CYP2C19): 35 µM
reversible inhibition of CYP2D6 (CYP2D6): not a reversible inhibitor; also recorded: no significant inhibition
IC50 (CYP1A2): 40 µM
reversible inhibition of CYP2C8 (CYP2C8): not a reversible inhibitor; also recorded: no significant inhibition
CYP1A2 mRNA induction, % of the levels of positive controls (CYP1A2 mRNA): ≤ 11%
CYP2B6 mRNA induction, % of the levels of positive controls (CYP2B6 mRNA): ≤ 11%
